Experimental data from patent US20240016784A1, “Y BOX BINDING PROTEIN 1 INHIBITORS” (Oregon Health & Science University, priority 2020, published 2024).

Columns and labels:
[1] = test system: OVCAR8, SKOV3, and ID8 cells; experiment: Cell cycle analysis (propidium iodide, flow cytometry); type: cell-based
Procedure: To determine whether proliferation inhibition was the dominant factor driving the reduction in OC viability seen with AzP treatment, we used propidium iodide and annexin-FITC stains with flow cytometry to measure the distribution of cell cycle phases after treatment. […] Furthermore, in the Boyden chamber assay for cell migration, SU093 inhibited cell migration by 40-46% (1 μM, P<0.05) in different OC cell lines.
Cell cycle analysis: 30,000 OC cells were plated in each well of 12 well plates and incubated for 24 h. […] Both live and dead cells were collected via trypsinization and cell pellets were fixed with 70% ethanol. Fixed cells were stained using propidium iodide (PI) cocktail (80 μg/mL RNase A and 50 μg/mL PI in saponin-EDTA solution) and incubated at 4° C. overnight. Each sample was analyzed using a Guava® easyCyte™ Flow Cytometer (Millipore, Burlington, MA). FlowJo software calculated the % cells in each cell cycle phase.
FIG. 1A) Lead optimization of SU093 to obtain SU056. FIG. 1B) IC50 values of SU093 and SU056 on various ovarian cancer cells. Clonogenic survival of OC cells treated with SU093 or SU056. […] FIG. 1C) Representative colony formation from respective wells. FIG. 1D) Number of colonies formed after SU093 and SU056 treatment. […] FIG. 1F) Cell cycle distribution of propidium iodide (PI)-stained OVCAR8, SKOV3, and ID8 cells. […] FIG. 1G) Effects of SU093 and SU056 on apoptotic cell death analyzed by Annexin-FITC staining. […] FIG. 1H) Cell migration assay.

Pharmacokinetics study = type: in vivo; conditions: injection of 20 mg/kg, intraperitoneal, mouse
Procedure: In a pharmacokinetics study in vivo, injection of 20 mg/kg SU056 led to a maximum serum concentration of 28.19 μg/mL with a T1/2 of ˜45 min. We then tested the synergism of paclitaxel and SU056 co-treatment in vivo in NOD-SCID mice implanted with OVCAR8 OC tumors as described above. Mice were given daily treatment of SU056 (10 mg/kg) and weekly treatment of paclitaxel (5 mg/kg) were administered intraperitoneally. […] This likely resulted from decreased paclitaxel efflux from OVCAR8 cells in the presence of SU056.
Pharmacokinetics study: SU056 Plasma concentration was determined by mass quantification analysis using an Agilent 6490 Funnel triple quadrupole (QQQ) mass spectrometer equipped with an Agilent 1290 infinity II UHPLC. An analytical C18 column, ZORBAX C18 (Eclipse Plus, 2.1×50 mm, 1.8 μm particle size) was used. The mobile phase was composed of 60% water buffered with 0.1% formic acid and 4 mM ammonium formate and 40% acetonitrile buffered with 0.1% formic acid. […] The precursor ion [M+H]+ and product ion for SU056 were monitored at m/z 370.0 and m/z 274.2, respectively. And the precursor ion [M+H]+ and product ion for IS were monitored at m/z 338.1 and m/z 260, respectively. […]
FIG. 10: Pharmacokinetics of SU056. […] After injection plasma was collected at respective time point and was analyzed using LC MS/MS as described in method.

With `O=C1OCC2=C1C(c1cccc(F)c1)c1cc3c(cc1N2CCO)OCO3` (stereo not shown) [SU056, 9-(3-fluorophenyl)-5-(2-hydroxyethyl)-6,9-dihydro-[1,3]dioxolo[4,5-g]furo[3,4-b]quinolin-8(5H)-one] the cell cycle distribution ([1]; 12 h treatment, PI-stained OVCAR8, SKOV3, ID8) was “G1 phase arrest”, the “cell cycle arrest, comparison of SU056 with SU093” value ([1]; OC lines) was “greater cell cycle arrest than SU093” and the maximum serum concentration (Pharmacokinetics study) was 28.19 µg/mL. It also gave a half-life (Pharmacokinetics study; plasma, ip) of about 45 min.
